Reference: publication PMC6989684 (Scientific Reports, 2020)

Molecular target: T1, M. musculus importin-α (MmImpα), variant α2, truncated 70–529 (Mus musculus, UniProt P52293)
T1 construct: histidine tag; made in house; host or cells: Escherichia coli Rosetta (TM) pLYS
Experiment: Isothermal titration calorimetry (ITC), NLS peptide titrated into MmImpα
Assay type: binding
Conditions: 20 °C; for interaction with Impα receptor in words: mutated PAC-3 NLS (basic cluster to Ala), pH 8.0, protein/peptide 1:10 and 1:20; for Stoichiometry (binding): mutated PAC-3 NLS, 20 mM Tris-HCl pH 8.0, 100 mM NaCl, protein/peptide 1:10 and 1:20
Excerpt: The gene encoding the protein Impα from M. musculus was cloned into the pET30a expression vector. Recombinant MmImpα was cloned with a histidine tag and as a truncated protein (70–529) to avoid autoinhibition. The clones were provided by Dr. Bostjan Kobe from the University of Queensland (Australia). The plasmid was expressed in Escherichia coli host strain Rosetta (TM) pLYS (Novagen), and the recombinant protein was purified by affinity chromatography according to Barros et al., 2012[59]. The protein was eluted with a 0.0–0.15 M imidazole linear gradient, concentrated using an Amicon dispositive, and the buffer was changed to 20 mM Tris-HCl, pH 8.0 and 100 mM NaCl for storage. The purified protein was stored at cryogenic temperature.
The samples were submitted to ITC experiments, performed with a MicroCal iTC200 microcalorimeter (GE Healthcare), where the peptide sample was titrated into the protein sample. […] Control experiments were performed by titration of the peptide sample into the buffer, and the data obtained were subtracted from the peptide:protein titrations. Data were processed using Origin 7.0 software (Microcal Software, Northampton, MA) to obtain the thermodynamic constants of the interactions.

Row | Sequence | interaction with Impα receptor in words | Stoichiometry (binding)
1 | FDAAAAQFDDLNDFFGSVKRRQIN [PAC3Δminor, mutated PAC-3 NLS peptide, N-terminal basic cluster mutated] | no measured interaction with Impα receptor | No binding
2 | FDARKRQFDDLNDFFGSVAAAQIN [PAC3Δmajor, mutated PAC-3 NLS peptide, C-terminal basic cluster mutated] | no measured interaction with Impα receptor | No binding
